Type in all cases: cell-based, human
Assay [1] concerns ibrutinib-sensitive MCL cell line, Mino. The experiment in a line: Mitochondria respiration (OCR, Seahorse), ibrutinib-sensitive Mino. The note with it: 20 nM for 1 h, vs control, p=0.0832, FIG. 5B. As to the method:
(§1) The oxygen consumption rate (OCR) was measured using a Seahorse XF-96 Metabolic Flux Analyzer (Seahorse Bioscience, North Billerica, Mass., USA). Briefly, MCL cells were treated with/without IACS-010759 (20 nM) for 1 h. On the day of analysis, 2-4×10^5 MCL cells/well were adhered to XF 96-well cell culture microplates (Seahorse Biosciences) pre-coated with Cell-Talc (BD Biosciences), by centrifugation at 1,000×g, without brakes for 5 min, then changed to mitochondria stress medium supplemented with 25 mM glucose, 2 mM sodium pyruvate, and 2 mM glutamine (pH 7.4), followed by incubation at 37° C. in a non-CO2 incubator for 1 h. […], FCCP (2 μM), and Rotenone/Antimycin A (0.5 μM), were loaded into drug delivery ports and injected sequentially at the indicated time points. After each injection, 4 time points were recorded with approximately 35 min between each injection. […] over time was normalized to protein content measured by sulforhodamine B (SRB) staining and plotted using Graph-Pad Prism.

Assay [2] has as its system ibrutinib-sensitive MCL cell lines (Mino and JeKo-1). The experiment in a line: Cell growth assay, ibrutinib-sensitive MCL cell lines. Conditions: 72-hour incubation, FIG. 5A. As to the method:
(§2) Cells were seeded in triplicate in a 96-well plate with 2×10^5 cells per well and treated with indicated dose of single agent or two compound combination for 24-72 hours. In the last 30 min, 50 μL of CellTiter 96 Aqueous One Solution Reagent were added to the culture wells and incubated at 37° C. in 5% CO2. Light absorbance of formazan was measured at 495 nm on a universal microplate reader equipped with KC4 software (Biotek Instruments, Winooski, Vt., USA).

The test system of assay [3] is ibrutinib-resistant MCL cell lines, Z-138 and Maver-1. The experiment in a line: Mitochondria respiration (OCR, Seahorse), ibrutinib-resistant MCL cell lines. The note with it: 20 nM for 1 h, FIG. 5B. The method, then:
as §1

For assay [4], the system named is Z-138 and Maver-1 MCL cell lines. The assay can be described thus: Immunoblotting of cleaved Caspase-7 and PARP. Conditions: 20 nM IACS-010759 and/or 5 μM BPTES for 72 hours; FIG. 5G. As to the method: Cells were cultured with single agent or combination therapy in the presence or absence of caspase inhibitors. Cells were harvested, washed twice with cold PBS, and lysed with lysis buffer (Cell Signaling, Danvers, Mass., USA). Cell lysates were kept on ice for 30 min and centrifuged at 13,000 g for 10 min at 4° C. For the detection of cytosolic cytochrome c, the Cytosol Fractionation Kit (BioVision, Milpitas, Calif., USA) was utilized to acquire cytosolic fractions according to the manufacturer's instructions. Supernatants were collected, and the protein content of each fraction was determined using a Bio-Rad Bradford assay (Bio-Rad, Hercules, Calif., USA). Samples were boiled in loading buffer and separated by 10% SDS-PAGE. After electrophoresis, the proteins were transferred onto a nitrocellulose membrane (Bio-Rad), which was incubated with blocking solution (5% nonfat dry milk in PBS containing 0.05% Tween-20) for 2 h and immunoblotted with SLC16A1 (Novus, St. Louis, Mo., USA), SLC1A5, BTK, and p16INK4a, and GAPDH (Cell Signaling, Danvers, Mass., USA) antibodies. The membrane was finally visualized by incubating the membrane with a chemiluminescence Western blot kit (Pierce Biotechnology, Rockford, Ill., USA).
(In general: In western blotting, separated proteins are transferred to a membrane and probed.)

For assay [5], the system named is ibrutinib-resistant MCL cell lines (Z-138 and Maver-1). The assay can be described thus: Cell growth assay, ibrutinib-resistant MCL cell lines. As to the method: as §2
In assay [6] the test system is ibrutinib-sensitive MCL cell lines. The experiment in a line: ROS levels by flow cytometry, ibrutinib-sensitive MCL cell lines. Conditions: FIG. 5E. The method, then: Mitochondria membrane potential, mitochondria mass, ROS, and apoptosis analysis. MCL cells were seeded and cultured overnight before treatment to reach log phase. Respective cell lines were plated at 2×10^6 cells/well in 6-well plates in phenol-red and pyruvate-free DMEM assay medium containing 5 mM glucose (Sigma), 2 mM GlutaMAX (Gibco, ThermoFisher Scientific), and 5% dialyzed FCS (Gibco). Vehicle, IACS-0107059 (20 nM), or (1-5 μM) BPTES was added and replenished every day until the indicated time points. ROS and mitochondria membrane potential were evaluated 24 hours after treatment. […] TMRE dye fluorescence retained in the cells was detected by flow cytometry with excitation and emission of 548/574 nm. Data were analyzed with NovoExpress (ACEA Biosciences, San Diego, Calif., USA) or FlowJo10 (Tree Star, Ashland, Oreg., USA).
To measure ROS levels, treated cells were harvested, stained with […] CM-H2DCF-DA (C6827, Molecular Probes, Invitrogen) in PBS for 30 min at 37° C., washed twice with PBS, and analyzed in a flow cytometer (FACS Caliber, BD Biosciences) by recording the green fluorescence of oxidized DCF. The mean fluorescence of 10,000 analyzed cells (corrected for auto fluorescence) was taken as a readout for the intracellular ROS load.
In general terms: A flow cytometer gives signals particle by particle.

The text below walks through data of patent publication US20200299783A1 (Board of Regents, The University of Texas System, priority 2019, published 2020).

SMILES strings stand for the structures. “Also recorded” adds a separate entry of the source.

`Cc1nc(-c2nc(-c3ccc(OC(F)(F)F)cc3)no2)nn1Cc1cccc(N2CCC(S(C)(=O)=O)CC2)c1` [IACS-010759]: the results for the “OCR (oxygen consumption rate)” value in assay [1] and in assay [3] (vs DMSO-treated control) were “little effect; also recorded: No significant difference” and “reduced the OCR”, respectively. For the same compound, the “inhibition of proliferation (cell growth inhibition)” value in assay [2] is reported as “very little effect”; in assay [5] (Z-138 and Maver-1, 72-hour incubation, FIG. 5A), “dose-dependent manner at nanomolar concentrations”. The “average reduction of OCR compared with the control” value in assay [3] (mixed effects regression model, p<0.0001) is on record as 358.9406 (95% CI: 321.1402-396.741). Moreover, the “caspase 7 activation and PARP cleavage” value in assay [4] was “induced caspase 7 activation and PARP cleavage”. For the same compound, the “difference in IC50 values between the resistant and sensitive cell lines” value in assay [5] (cell growth, 72 h, resistant (Z-138, Maver-1) vs sensitive (Mino, JeKo-1)) is listed as “approximately 10 fold”. Further, in assay [6], the ROS production result is recorded as “not in the -sensitive cell lines”.
